ChEMBL document CHEMBL1157539, “Thousands of chemical starting points for antimalarial lead identification” (Nature, 2010)

System: Plasmodium falciparum
Assay: GSK_TCMDC: Inhibition of Plasmodium falciparum 3D7 in whole erythrocytes, using parasite LDH activity as an index of growth.
Assay type: functional, organism-based
Settings: Plasmodium falciparum, 3D7

Structure (SMILES) | XC50
O=S(=O)(Nc1ccc2nccc(N3CCNCC3)c2c1)c1ccc(-c2ccccc2)cc1 | 977 nM
CN(C)CCN(C)C(=O)c1cc(-c2ccncc2)c(-c2ccc(Cl)c(O)c2)o1 | 1050 nM
Cc1cc(N)c2cc(NC(=O)c3cc(C(F)(F)F)cc(C(F)(F)F)c3)ccc2n1 | 86.8 nM
Cc1noc(C)c1-c1cccc(CNCc2cccc(-c3ccc(-c4nc5ccccc5[nH]4)s3)c2)c1 | 204 nM
Fc1ccc2[nH]c(-c3ccccc3)nc2c1CN1CCC(N2CCCC2)CC1 | 717 nM
CCOC(=O)c1ccc(NC(=O)N[C@@H](Cc2ccccc2)C(=O)NC2CCN(Cc3ccc(OCCCN(C)C)cc3)C2)cc1 (some centres undefined) | 702 nM
CCCCCCNc1cc(C)nc(NC(=N)Nc2cccc(C(F)(F)F)c2)n1 | 739 nM
CCN(CC)CCCC(C)Nc1c(-c2ccc(C)cc2)cnc2ccccc12 (centres undefined) | 200 nM
CCCCCCN1CCCN(Cc2ccc(C(=O)Nc3ccc(C)c(F)c3)cc2)CC1 | 331 nM
c1ccc(Oc2ccc(Nc3ccnc4ccc(-c5ccco5)cc34)cc2)cc1 | 928 nM
Cc1ccccc1C1CCN(C2CCC(NC(=O)c3ccc(-c4ccccc4)s3)CC2)CC1 (centres undefined) | 661 nM
Cc1cc(N(C)CCCN(C)C)nc(Nc2ccc(Cl)cc2)n1 | 1020 nM
COc1ccc(NS(=O)(=O)c2ccc(C(=O)Nc3ccc(OC(F)(F)F)cc3)cc2)cc1N1CCN(CC2CC2)CC1 | 1000 nM
NS(=O)(=O)c1cccc(Nc2nc(N[C@@H]3CCNC3)nc3cc[nH]c(=O)c23)c1 | 940 nM
Cc1cc(N)cc2nc(-c3ccc(N)cc3)[nH]c12 | 892 nM
COc1ccc(C2c3cc(OC)c(OC)cc3C(=NO)C2C)cc1OC (centres undefined) | 1170 nM
CCN(CC)CCN(Cc1ccc(-c2ccc(C(F)(F)F)cc2)cc1)C(=O)Cn1c(CCc2ccc(F)c(F)c2)cc(=O)c2ccccc21 | 890 nM
CCN1CCN(c2cc(C)c3cc(NC(=O)c4cncc(Br)c4)ccc3n2)CC1 | 656 nM
COc1ccc2nc(C)cc(Nc3ccc(Oc4ccc5ccccc5c4)c(Cl)c3)c2c1 | 691 nM
c1cc(CNCC2CCCO2)cc(-c2ccc(-c3nc4ccccc4[nH]3)s2)c1 (centres undefined) | 1170 nM

Structure (SMILES) | XC50
CC(=O)Nc1ccc(CN2CCC(NC(=O)c3ccc(-c4cccc(Cl)c4)s3)CC2)cc1 | 792 nM
O=C(NCCCCN1CCC(c2ccc3c(c2OCC(O)c2ccc(Cl)cc2)CCCC3)CC1)c1ccc(-c2ccc(C(F)(F)F)cc2)cc1 (centres undefined) | 1040 nM
Cc1ccc(CN2CCCN(Cc3cccc(NC(=O)c4ccc(Cl)c(Cl)c4)c3)CC2)cc1 | 902 nM
COc1ccc(-c2ccc(NC(=O)c3cccc(C#N)c3)cc2)cc1CN1CCC(O)CC1 | 821 nM
CS(=O)(=O)Cc1ccc(Nc2ncc(Cl)c(Nc3cccnc3C(N)=O)n2)cc1 | 868 nM
Cc1cccc(CN2CCCN(Cc3cccc(C(=O)Nc4ccc(C(C)(C)C)cc4)c3)CC2)c1 | 934 nM
CN(C)C(=O)CCCn1c(CNCCCNc2cc(=O)c3ccccc3[nH]2)cc2c(Cl)cc(Cl)cc21 | 1190 nM
CC(C)Sc1nc2c(c(=O)n1Cc1ccco1)C1(CCCC1)Cc1ccccc1-2 | 1630 nM
CC(C)(C)c1ccc(OCCCON2C(N)=NC(N)=NC2(C)C)cc1 | 3.2 nM
O=C(Nc1ccc(N2CCCCC2)c(Cl)c1)c1ccco1 | 409 nM
Clc1cc(Nc2ncnc3sc(C#Cc4ncc[nH]4)cc23)ccc1OCc1ccccn1 | 1110 nM
CCC1N=C(N)N=C(N)N1OCCCOc1c(Cl)cc(Cl)cc1Cl (centres undefined) | 3.2 nM
CCCC(CCC)n1ccc2c3c(N)nc(N)nc3ccc21 | 4.9 nM
CC(=NNC(=N)N)C(=O)Nc1ccc(Cl)c(Cl)c1 | 166 nM
CCOc1cc2ccccc2cc1CNCCCCCCNCc1cc2ccccc2cc1OCC | 979 nM
CC[C@H]1CN2CC[C@H]1C[C@H]2[C@H](O)c1cc(-c2ccccc2F)nc2ccc(OC)cc12 | 78.9 nM
CN1CCC(C(=O)Nc2ccc(-c3ccc(-c4nc5ccccc5[nH]4)s3)cc2)CC1 | 816 nM
Cn1nc(-c2cccc(CNCc3ccccc3)c2)c2cnc(NC3CCCC3)nc21 | 1260 nM
COc1ccc(-c2ccc(NC(=O)c3ccc(C#N)cc3)c(F)c2)cc1CN(C)CCN(C)C | 974 nM
